From patent US6667303B1, “Aryl substituted 1,4-diazepanes and method of use thereof” (Wyeth, priority 2001, dated 2003)
Where two headings read alike, the source gives them in different places.

Assays:
[1] = target: T1, human 5-hydroxytryptamine2C (h5HT2C) receptor (Homo sapiens, UniProt P28335); assay: 5HT2C receptor binding assay ([125I] DOI displacement)
T1 construct: expressed in transfected cells; host or cells: CHO (Chinese Hamster Ovary) cells; membrane preparation
T1 sequence (P28335 33-458): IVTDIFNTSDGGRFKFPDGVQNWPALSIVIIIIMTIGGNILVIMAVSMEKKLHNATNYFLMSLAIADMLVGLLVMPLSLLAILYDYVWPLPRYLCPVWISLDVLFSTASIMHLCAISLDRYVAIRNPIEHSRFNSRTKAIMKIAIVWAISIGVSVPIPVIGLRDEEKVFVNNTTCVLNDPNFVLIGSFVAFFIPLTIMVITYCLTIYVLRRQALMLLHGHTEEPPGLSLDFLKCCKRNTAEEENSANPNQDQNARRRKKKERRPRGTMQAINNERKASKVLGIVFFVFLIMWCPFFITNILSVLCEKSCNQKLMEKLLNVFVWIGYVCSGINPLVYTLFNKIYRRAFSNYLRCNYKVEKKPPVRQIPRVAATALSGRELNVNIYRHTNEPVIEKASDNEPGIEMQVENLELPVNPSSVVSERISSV
Description: To determine for compounds of Formula (I) the affinity for the 5HT2C receptor, the following 5HT2C receptor binding assay was performed. A CHO (Chinese Hamster Ovary) cell line transfected with the cDNA expressing the human 5-hydroxytryptamine2C (h5HT2C) receptor was maintained in DMEM (Dulbecco's Modified Eagle Media) supplied with fetal calf serum, glutamine, and the markers: guaninephosphoribosyl transferase (GTP) and hypoxanthinethymidine (HT). The cells were allowed to grow to confluence in large culture dishes with intermediate changes of media and splitting. Upon reaching confluence, the cells were harvested by scraping. The harvested cells were suspended in half volume of fresh physiological phosphate buffered saline (PBS) solution and centrifuged at low speed (900×g). This operation was repeated once more. The collected cells were then homogenized with a polytron at setting #7 for 15 sec in ten volumes of 50 mM Tris.HCl, pH 7.4 and 0.5 mM EDTA. The homogenate was centrifuged at 900×g for 15 min to remove nuclear particles and other cell debris. The pellet was discarded and the supernatant fluid recentrifuged at 40,000×g for 30 min. The resulting pellet was resuspended in a small volume of Tris.HCl buffer and the tissue protein content was determined in aliquots of 10-25 microliter (μl) volumes. Bovine Serum Albumin (BSA) was used as the standard in the protein determination by the method of Lowry et al., (J. Biol. Chem., 193:265 (1951)). The volume of the suspended cell membranes was adjusted with 50 mM Tris.HCl buffer containing: 0.1% ascorbic acid, 10 mM pargyline and 4 mM CaCl2 to give a tissue protein concentration of 1-2 mg per ml of suspension. The preparation membrane suspension (many times concentrated) was aliquoted in 1 ml volumes and stored at −70° C. until used in subsequent binding experiments.
Binding experiments were performed in a 96 well microtiter plate format, in a total volume of 200 μl. To each well was added: 60 μl of incubation buffer made in 50 mM Tris.HCl buffer, pH 7.4 and containing 4 mM CaCl2; 20 μl of […] DOI [1-(4-iodo-2,5-dimethoxyphenyl)-2-aminopropane] (S.A., 2200 Ci/mmol, NEN Life Science).
DOI. The reaction was initiated by the final addition of 100.0 μl of tissue suspension containing 50 μg of receptor protein. Nonspecific binding was measured in the presence of 1 μM unlabeled DOI added in 20.0 μl volume. Test compounds are added in […]. The mixture was incubated at room temperature for 60 min. The incubation was stopped by rapid filtration. The bound ligand-receptor complex was filtered off on a 96 well unifilter with a Packard® Filtermate 196 Harvester. The bound complex caught on the filter disk was dried in a vacuum oven heated to 60° C. and the radioactivity measured by liquid scintillation with 40 μl Microscint-20 scintillant in a Packard TopCount® equipped with six (6) photomultiplier detectors.
Description of this method can be found in Sanders-Bush, E. et al., Putative selective 5-HT2C antagonists block serotonin 5-HT1C receptors in the choroid plexus, J. Pharmacol. Exper. Ther., 247: 169-173 (1988), and Akiyoshi, J., et al., Effects of antidepressants on intracellular calcium mobilization in CHO cells transfected with the human 5-HT2C receptors, Biol. Psychiatry, 39:1000-1008 (1996).
Specific binding is defined as the total radioactivity bound less the amount bound in the presence of 1 μM unlabeled DOI. Binding in the presence of varying concentrations of test drugs was expressed as percent of specific binding in the absence of drug. […] Alternatively, a linear regression line of decline of data points was plotted, from which the IC50 value was read off the curve and the Ki value determined by solving the following equation: [formula]

[2] = target: T2, human serotonin 5HT2C receptor (Homo sapiens, UniProt P28335); assay: saturation binding with increasing concentrations of [125I] DOI
T2 construct: expressed in transfected cells; host or cells: CHO (Chinese Hamster Ovary) cells; membrane preparation
T2 sequence (P28335 33-458): T1 sequence (P28335 33-458)
Description: To determine for compounds of Formula (I) the affinity for the 5HT2C receptor, the following 5HT2C receptor binding assay was performed. A CHO (Chinese Hamster Ovary) cell line transfected with the cDNA expressing the human 5-hydroxytryptamine2C (h5HT2C) receptor was maintained in DMEM (Dulbecco's Modified Eagle Media) supplied with fetal calf serum, glutamine, and the markers: guaninephosphoribosyl transferase (GTP) and hypoxanthinethymidine (HT). The cells were allowed to grow to confluence in large culture dishes with intermediate changes of media and splitting. Upon reaching confluence, the cells were harvested by scraping. The harvested cells were suspended in half volume of fresh physiological phosphate buffered saline (PBS) solution and centrifuged at low speed (900×g). This operation was repeated once more. […] The resulting pellet was resuspended in a small volume of Tris.HCl buffer and the tissue protein content was determined in aliquots of 10-25 microliter (μl) volumes. […]
The dissociation constant, KD of [^125I] […] Nonspecific binding was measured in the presence of 1 μM unlabeled DOI added in 20.0 μl volume. […] The bound complex caught on the filter disk was dried in a vacuum oven heated to 60° C. and the radioactivity measured by liquid scintillation with 40 μl Microscint-20 scintillant in a Packard TopCount® equipped with six (6) photomultiplier detectors.

[3] = membranes of CHO cells expressing h5HT2C, radioligand [125I] DOI, room temperature, 60 min, read-out: 5HT2C Binding Affinity Ki

Compound | Ki [1, 3] | Ki [1] | also measured
COc1ccc(CN2C(=O)c3cccc4c(N5CCCN(CC(C)(C)C)CC5)ccc2c34)cc1 [Example 5, 1-(4-methoxybenzyl)-6-(4-neopentyl-1,4-diazepan-1-yl)benzo[cd]indol-2(1H)-one] | 132 nM |  | 
COc1ccc(CN2C(=O)c3cccc4c(N5CCCN(CCCc6ccccc6)CC5)ccc2c34)cc1 [Example 11] | 165 nM |  | 
CC(C)CN1CCCN(c2ccc3c4c(cccc24)C(=O)N3CC2CCC2)CC1 [Example 24, 1-(cyclobutylmethyl)-6-(4-isobutyl-1,4-diazepan-1-yl)benzo[cd]indol-2(1H)-one] |  | 260 nM | 
COc1cc(CC(C)N)c(OC)cc1I (stereo not shown) [[^125I] DOI, 1-(4-iodo-2,5-dimethoxyphenyl)-2-aminopropane] |  |  | Kd [2]: 0.4 nM
O=C1c2cccc3c(N4CCCN(CC5CCC5)CC4)ccc(c23)N1CC1CCC1 [Example 32, 1-(cyclobutylmethyl)-6-[4-(cyclobutylmethyl)-1,4-diazepan-1-yl]benzo[cd]indol-2(1H)-one] |  | 256 nM | 
CCCCCN1CCCN(c2ccc3c4c(cccc24)C(=O)N3CC)CC1 [Example 44, 1-ethyl-6-(4-pentyl-1,4-diazepan-1-yl)benzo[cd]indol-2(1H)-one] | 247 nM |  | 
CCCCCN1CCCN(c2ccc3c4c(cccc24)C(=O)N3CCCC(F)(F)F)CC1 [Example 80, 6-(4-pentyl-1,4-diazepan-1-yl)-1-(4,4,4-trifluorobutyl)benzo[cd]indol-2(1H)-one] |  | 190 nM | 
C=CCN1CCCN(c2ccc3c4c(cccc24)C(=O)N3CC2CCC2)CC1 [Example 22, 6-(4-allyl-1,4-diazepan-1-yl)-1-(cyclobutylmethyl)benzo[cd]indol-2(1H)-one] |  | 241 nM | 
COc1cc(CC(C)N)c(OC)cc1I (stereo not shown) [DOI, 1-(4-iodo-2,5-dimethoxyphenyl)-2-aminopropane, reference compound] |  | 19.5 nM | 
O=C1c2cccc3c(N4CCCN(CCc5ccccc5)CC4)ccc(c23)N1CC1CCC1 [Example 28, 1-(cyclobutylmethyl)-6-[4-(2-phenylethyl)-1,4-diazepan-1-yl]benzo[cd]indol-2(1H)-one] | 178 nM |  | 
O=C1c2cccc3c(N4CCCN(CCc5ccccc5)CC4)ccc(c23)N1CCCC(F)(F)F [Example 85, 6-[4-(2-phenylethyl)-1,4-diazepan-1-yl]-1-(4,4,4-trifluorobutyl)benzo[cd]indo-2(1H)-one] | 112 nM |  | 
COc1ccc(CN2C(=O)c3cccc4c(N5CCCN(CC6CCC6)CC5)ccc2c34)cc1 [Example 13, 6-[4-(cyclobutylmethyl)-1,4-diazepan-1-yl]-1-(4-methoxybenzyl)benzo[cd]indol-2(1H)-one] | 257 nM |  | 
CCCN1CCCN(c2ccc3c4c(cccc24)C(=O)N3Cc2ccc(OC)cc2)CC1 [Example 88, 1-(4-methoxybenzyl)-6-(4-propyl-1,4-diazepan-1-yl)benzo[cd]indol-2(1H)-one] | 243 nM |  | 
